# Reference: PubChem BioAssay (NCI)
#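 Briefly, cells in 96-well plates were exposed to five compound concentrations for 48 h, and endpoints were estimated by linear interpolation. Here, GI50 denotes the concentration required for 50% inhibition of growth. TGI: concentration producing complete growth inhibition.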
# Experiments:
# Test in all cases: NCI tumour cell line growth inhibition, 48 h
# [1] = system: OVCAR-8 ovarian
# [2] = system: NCI-H460 lung
# [3] = system: A549 NSCLC
# [4] = system: SF-295 CNS
# [5] = system: MDA-MB-231 breast
# [6] = system: HL-60(TB) leukemia
# [7] = system: BT-549 breast
# [8] = system: RPMI-8226 leukemia
# [9] = system: SK-OV-3 ovarian
# [10] = system: TK-10 renal
# [11] = system: MCF7 breast
# [12] = system: SF-268 CNS
# [13] = system: HT29 colon
# [14] = system: SN12C renal
# [15] = system: NCI-H522 lung
# [16] = system: OVCAR-5 ovarian
# [17] = system: HOP-62 NSCLC
# [18] = system: T-47D breast
# [19] = system: MDA-MB-435
# [20] = system: MOLT-4 leukemia
# [21] = system: SK-MEL-5 melanoma
# [22] = system: NCI/ADR-RES ovarian
# [23] = system: SK-MEL-28 melanoma
# [24] = system: K-562 leukemia
# [25] = system: SNB-75 CNS
# [26] = system: OVCAR-4 ovarian
# [27] = system: CCRF-CEM leukemia
# [28] = system: UACC-62 melanoma
# [29] = system: HS 578T breast
# [30] = system: EKVX NSCLC
# [31] = system: HCC-2998 colon
# [32] = system: UACC-257 melanoma
# [33] = system: SK-MEL-2 melanoma
# [34] = system: COLO 205 colon
# [35] = system: CAKI-1 renal
# [36] = system: MALME-3M melanoma
# [37] = system: SW-620 colon
# [38] = system: DU-145 prostate
# [39] = system: SR leukemia
# [40] = system: HCT-116 colon
# [41] = system: A498 renal
# [42] = system: M14 melanoma
# [43] = system: KM12 colon
# [44] = system: IGROV1 ovarian
# [45] = system: UO-31 renal
# [46] = system: PC-3 prostate
# [47] = system: LOX IMVI melanoma
# [48] = system: 786-0 renal
# [49] = system: HOP-92 NSCLC
# [50] = system: SF-539 CNS
# [51] = system: NCI-H226 lung
# [52] = system: U251 CNS
# [53] = system: ACHN renal
# [54] = system: NCI-H23 lung
# [55] = system: SNB-19 CNS
# [56] = system: RXF 393 renal
# [57] = system: HCT-15 colon
smiles,measurement,setting,value
C#Cc1ccc(NC(=O)c2ccc(/C=C/C(=O)c3nccn3C)cc2)c(F)c1,GI50,[1],1.91 µM
same,TGI,[1],> 50 µM
same,GI50,[2],1.12 µM
same,TGI,[2],2.68 µM
same,GI50,[3],1.51 µM
same,TGI,[3],> 50 µM
same,GI50,[4],1.74 µM
same,TGI,[4],16.8 µM
same,GI50,[5],2.14 µM
same,TGI,[5],22.4 µM
same,GI50,[6],0.844 µM
same,TGI,[6],2.43 µM
same,GI50,[7],0.823 µM
same,TGI,[7],2.25 µM
same,GI50,[8],0.522 µM
same,TGI,[8],2.14 µM
same,GI50,[9],2.53 µM
same,TGI,[9],> 50 µM
same,GI50,[10],> 50 µM
same,TGI,[10],> 50 µM
same,GI50,[11],1.29 µM
same,TGI,[11],> 50 µM
same,GI50,[12],1.63 µM
same,TGI,[12],> 50 µM
same,GI50,[13],1.49 µM
same,TGI,[13],> 50 µM
same,GI50,[14],1.44 µM
same,TGI,[14],> 50 µM
same,GI50,[15],2.16 µM
same,TGI,[15],> 50 µM
same,GI50,[16],1.77 µM
same,TGI,[16],> 50 µM
same,GI50,[17],1.54 µM
same,TGI,[17],> 50 µM
same,GI50,[18],1.84 µM
same,TGI,[18],> 50 µM
same,GI50,[19],1.86 µM
same,TGI,[19],> 50 µM
same,GI50,[20],1.37 µM
same,TGI,[20],5.42 µM
same,GI50,[21],2.04 µM
same,TGI,[21],> 50 µM
same,GI50,[22],1.5 µM
same,TGI,[22],> 50 µM
same,GI50,[23],> 50 µM
same,TGI,[23],> 50 µM
same,GI50,[24],0.853 µM
same,TGI,[24],> 50 µM
same,GI50,[25],1 µM
same,TGI,[25],4.34 µM
same,GI50,[26],2.65 µM
same,TGI,[26],> 50 µM
same,GI50,[27],1.08 µM
same,TGI,[27],5.85 µM
same,GI50,[28],1.93 µM
same,TGI,[28],> 50 µM
same,GI50,[29],1.88 µM
same,TGI,[29],> 50 µM
same,GI50,[30],1.41 µM
same,TGI,[30],> 50 µM
same,GI50,[31],1.74 µM
same,TGI,[31],> 50 µM
same,GI50,[32],> 50 µM
same,TGI,[32],> 50 µM
same,GI50,[33],> 50 µM
same,TGI,[33],> 50 µM
same,GI50,[34],4.02 µM
same,TGI,[34],> 50 µM
same,GI50,[35],2.27 µM
same,TGI,[35],> 50 µM
same,GI50,[36],3.76 µM
same,TGI,[36],> 50 µM
same,GI50,[37],1.33 µM
same,TGI,[37],> 50 µM
same,GI50,[38],1.81 µM
same,TGI,[38],45.6 µM
same,GI50,[39],0.545 µM
same,TGI,[39],4.44 µM
same,GI50,[40],0.876 µM
same,TGI,[40],1.94 µM
same,GI50,[41],2.5 µM
same,TGI,[41],> 50 µM
Oc1ccc(CSc2nnc(-c3ccc(Cl)cc3)n2-c2ccccc2)c2cccnc12,GI50,[1],0.516 µM
same,TGI,[1],> 100 µM
same,GI50,[2],0.368 µM
same,TGI,[2],> 100 µM
same,GI50,[42],0.51 µM
same,TGI,[42],> 100 µM
same,GI50,[43],0.877 µM
same,TGI,[43],> 100 µM
same,GI50,[3],2.07 µM
same,TGI,[3],> 100 µM
same,GI50,[44],0.954 µM
same,TGI,[44],> 100 µM
same,GI50,[4],0.732 µM
same,TGI,[4],> 100 µM
same,GI50,[5],5.84 µM
same,TGI,[5],> 100 µM
same,GI50,[6],0.584 µM
same,TGI,[6],> 100 µM
same,GI50,[45],0.273 µM
same,TGI,[45],> 100 µM
same,GI50,[46],0.636 µM
same,TGI,[46],> 100 µM
same,GI50,[7],0.731 µM
same,TGI,[7],> 100 µM
same,GI50,[8],0.456 µM
same,TGI,[8],> 100 µM
same,GI50,[9],2.34 µM
same,TGI,[9],> 100 µM
same,GI50,[10],0.756 µM
same,TGI,[10],> 100 µM
same,GI50,[47],0.425 µM
same,TGI,[47],> 100 µM
same,GI50,[11],0.41 µM
same,TGI,[11],> 100 µM
same,GI50,[48],1.17 µM
same,TGI,[48],> 100 µM
same,GI50,[12],0.633 µM
same,TGI,[12],> 100 µM
same,GI50,[13],> 100 µM
same,TGI,[13],> 100 µM
same,GI50,[14],0.908 µM
same,TGI,[14],> 100 µM
same,GI50,[15],1.91 µM
same,TGI,[15],> 100 µM
same,GI50,[16],5.73 µM
same,TGI,[16],> 100 µM
same,GI50,[17],0.544 µM
same,TGI,[17],> 100 µM
same,GI50,[18],1.92 µM
same,TGI,[18],> 100 µM
same,GI50,[19],0.517 µM
same,TGI,[19],> 100 µM
same,GI50,[20],0.592 µM
same,TGI,[20],> 100 µM
same,GI50,[49],0.351 µM
same,TGI,[49],6.34 µM
same,GI50,[21],2.22 µM
same,TGI,[21],> 100 µM
same,GI50,[22],0.211 µM
same,TGI,[22],> 100 µM
same,GI50,[50],0.444 µM
same,TGI,[50],> 100 µM
same,GI50,[23],1.15 µM
same,TGI,[23],> 100 µM
same,GI50,[24],0.357 µM
same,TGI,[24],> 100 µM
same,GI50,[51],4.98 µM
same,TGI,[51],> 100 µM
same,GI50,[25],0.802 µM
same,TGI,[25],> 100 µM
same,GI50,[52],0.327 µM
same,TGI,[52],> 22.1 µM
same,GI50,[26],2.07 µM
same,TGI,[26],> 100 µM
same,GI50,[27],0.488 µM
same,TGI,[27],> 100 µM
same,GI50,[28],1.49 µM
same,TGI,[28],> 100 µM
same,GI50,[29],0.364 µM
same,TGI,[29],> 23.6 µM
same,GI50,[53],0.532 µM
same,TGI,[53],> 100 µM
same,GI50,[54],0.697 µM
same,TGI,[54],> 100 µM
same,GI50,[30],1.38 µM
same,TGI,[30],> 100 µM
same,GI50,[55],0.434 µM
same,TGI,[55],> 100 µM
same,GI50,[31],0.733 µM
same,TGI,[31],> 100 µM
same,GI50,[32],2.98 µM
same,TGI,[32],> 100 µM
same,GI50,[33],1.34 µM
same,TGI,[33],> 72.1 µM
same,GI50,[56],1.79 µM
same,TGI,[56],> 100 µM
same,GI50,[34],> 100 µM
same,TGI,[34],> 100 µM
same,GI50,[35],1.27 µM
same,TGI,[35],> 100 µM
same,GI50,[36],2.39 µM
same,TGI,[36],> 100 µM
same,GI50,[37],0.436 µM
same,TGI,[37],> 100 µM
same,GI50,[38],0.762 µM
same,TGI,[38],> 100 µM
same,GI50,[39],0.264 µM
same,TGI,[39],> 100 µM
same,GI50,[57],0.162 µM
same,TGI,[57],> 100 µM
same,GI50,[40],0.375 µM
same,TGI,[40],> 100 µM
same,GI50,[41],3.89 µM
same,TGI,[41],> 100 µM
